Patent US6835382B2, “Ii peptide therapeutics to enhance antigen presentation” (University of Massachusetts, priority 1996, dated 2004)
Non-standard residues stand in square brackets, D forms with d. hArg = N=C(N)NCCCC[C@H](N)C(=O)O; Cit = NC(=O)NCCC[C@H](N)C(=O)O; Orn = NCCC[C@H](N)C(=O)O

Target: T1, murine E^d MHC class II allele (Mus musculus, UniProt P01904+P01915)
T1 sequence (P01904 26-255): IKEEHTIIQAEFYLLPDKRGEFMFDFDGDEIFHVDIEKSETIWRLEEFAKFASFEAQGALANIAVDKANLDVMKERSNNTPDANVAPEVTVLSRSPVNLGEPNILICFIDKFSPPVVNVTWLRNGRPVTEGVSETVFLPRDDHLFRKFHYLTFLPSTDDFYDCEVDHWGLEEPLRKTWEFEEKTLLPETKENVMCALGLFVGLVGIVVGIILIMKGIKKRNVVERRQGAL
T1 sequence (P01915 27-264 limits assumed): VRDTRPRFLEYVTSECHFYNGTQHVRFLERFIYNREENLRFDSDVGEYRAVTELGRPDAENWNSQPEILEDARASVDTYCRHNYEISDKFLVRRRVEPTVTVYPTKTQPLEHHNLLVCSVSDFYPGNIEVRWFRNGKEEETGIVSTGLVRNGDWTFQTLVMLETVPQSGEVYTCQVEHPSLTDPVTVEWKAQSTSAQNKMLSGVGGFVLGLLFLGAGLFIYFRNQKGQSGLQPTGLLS
Experiment: antigenic peptide prepulse assay, E^d allele (fixed APC prepulsed with HEL106-116)
Type: cell-based
Set-up: The A20 and CH27 B cell lymphoma lines express H-2^d and H-2^k alleles, respectively; endogenous in cells; host or cells: A20 B cell lymphoma (mitomycin C-treated or paraformaldehyde-fixed)
Conditions: AE peptide 64 μM; for Activity in antigenic peptide prepulse assay, E^d (baseline without AE peptide = 1.00): Table 19, prepulse 12 μM HEL106-116
Experimental: In a second type of assay, the “peptide prepulse assay”, the antigenic peptide is incubated with paraformaldehyde-fixed APC for 6 h. The APC are washed and incubated for 24 h with the AE101 series homolog and the T cell hybridoma specific for the antigenic peptide. After that incubation, an aliquot of the culture supernatant is transferred to a second culture to measure the relative degree of T hybridoma stimulation, as reflected in the effect of released interleukins on the growth of an interleukin-dependent, indicator cell line, as described above.
The two above described assays measure different aspects of the molecular mechanism of the AE101 series of peptides. In the “simultaneous assay”, AE101 series peptides are thought to induce the release of endogenously bound peptides and to permit the binding of the second, specific antigenic peptide which is relatively abundant in the culture fluid. The AE101 series peptides enhance antigenic peptide-specific T cell responses in simultaneous assays. In the “peptide prepulse” assay, the specific antigenic peptide becomes bound to MHC class II molecules on the surface of the fixed APC during the 6 h prepulse incubation. The effect of the AE101 series homologs is then thought to release that antigenic peptide, resulting in an apparent suppression of the immune response.
The AE101 series peptides are thought to contact the MHC class II molecules at a discrete site outside the antigenic peptide-binding groove. AE101 peptide binding to this “Ii-KEY” site is thought to induce a conformational change in the MHC class II molecules accelerating the dissociation of previously bound antigenic peptide. […] The AE101 series peptides thus inhibit antigenic peptide-specific T cell responses in the “peptide prepulse” assays.
Antigenic peptide-specific T cell activation was measured by the following procedure. Mitomycin C-treated A20 cells (A^dE^d) or CH27 cells APC (A^kE^k) were generated by incubating 5×10^6 cells/mL for 20 min at 37° C. with 0.025 mg/mL of mitomycin C (Sigma) in Dulbecco's Modified Eaglel's Medium (DMEM)/10 mM N-2(hydroxyethylpiperazine-N″[2-ethanesulfonic acid] (HEPES), followed by two washes with four volumes of DMEM-5% fetal calf serum (FCS), 10 mM HEPES. Fixed APC were generated by treating 1×10^6 cells/mL for 5 min with 0.5% paraformaldehyde in PBS (pH 7.2), followed by two washes with four volumes of DMEM-10% FCS, 10 mM HEPES. T cell hybridomas were irradiated 2200 rads before each assay.
The “peptide prepulse assay” was carried out under essentially the same conditions as described for the “simultaneous assay” with the following modifications. Fixed APC were first incubated for 6 h at 1×10^6 cells/mL in complete DMEM-5% FCS in 24-well microculture plates (1 mL/well) with antigenic peptide, followed by four washes with 10 volumes of DMEM-5% FCS. The cells were then exposed to varying concentrations of AE101 series peptide (64 μM, 16 μM, 4 μM, and 1 μM) for 24 h in the presence of the T cell hybridoma specific to the antigenic peptide. Interleukin release from these cultures was measured by proliferation of HT-2 cells to interleukins in supernatants transferred from the primary culture. Generally, a single dose of 64 μM of each AE101 series peptide was used. The baseline T cell response was measured by culturing T hybridoma cells with the antigenic peptide-prepulsed APC in the absence of AE101 series peptides.
[…] […] Paraformaldehyde-treated APC (fixed APC) expressing MHC class II molecules were incubated with antigenic peptide for 6 h (HEL106-116 for E^d and PGCC81-104 for E^k). After this incubation, the prepulsed APC were washed and cultured with T hybridoma cells and AE101 series peptides. […] The AE101 series peptide concentrations were 64 μM for E^d and 16 μM for E^k. The dilutions of supernatant taken into the HT-2 cell assay were 1:4 for Ed and 1:2 for E^k.

[1] = Table 20, prepulse 3 μM antigenic peptide, supernatant 1:2
[2] = Table 21, prepulse 24 μM antigenic peptide, supernatant 1:8

Substance | Activity in antigenic peptide prepulse assay, E^d (baseline = 1.00) [1] | Activity in antigenic peptide prepulse assay, E^d (baseline without AE peptide = 1.00) (supernatant 1:4) | also measured
Ac-Y Q MKLPKSAK-NH2 [AE138] | 0.73 | – | –
Ac-Y Y MKLPKSAK-NH2 [AE140] | 0.78 | – | –
Ac-YAMKLPKSAK-NH2 [AE121] | 0.53 | – | –
Ac-YRM-NH2 [AE118] | – | 0.68 | –
Ac-YRMK-NH2 [AE117] | – | 0.65 | –
Ac-YRMKL hydrP KSAK-NH2 (Ac-YRMKL[hydrP]KSAK-NH2) [AE143] | – | – | Activity in antigenic peptide prepulse assay, E^d (baseline = 1.00) [2]: 0.18
Ac-YRMKL-NH2 [AE116] | – | 0.80 | –
Ac-YRMKLP-NH2 [AE115] | – | 0.49 | –
Ac-YRMKLPK-NH2 [AE113] | – | 0.10 | –
Ac-YRMKLPKSAK-NH2 [AE109] | 0.28 | 0.11 | Activity in antigenic peptide prepulse assay, E^d (baseline = 1.00) [2]: 0.10
Ac-Y[Cit]MKLPKSAK-NH2 [AE131] | 0.69 | – | Activity in antigenic peptide prepulse assay, E^d (baseline = 1.00) (Table 25, prepulse 24 μM antigenic peptide, supernatant 1:4): 0.61
Ac-Y[Orn]MKLPKSAK-NH2 [AE130] | 0.79 | – | –
Ac-Y[hArg]MKLPKSAK-NH2 [AE132] | 0.58 | – | Activity in antigenic peptide prepulse assay, E^d (baseline = 1.0) (Table 26, prepulse 24 μM antigenic peptide, supernatant 1:2): 0.82
Ac-l RMKLPK-NH2 [AE160] | – | – | Activity in antigenic peptide prepulse assay, E^d (baseline = 1.00) (Table 22, prepulse 6 μM antigenic peptide, supernatant 1:8): 0.40
YRMKLPKSAKPVSQMR [AE101] | 0.25 | – | –
